Several values for one entry are separate records, joined by “and”; a condition that tells them apart may be missing. Equal entries are not always repeated. ± gives the expanded uncertainty stated by the source.
Conditions: Liquid

O=[Si] [silicon monooxide]
Conditions | vapor or sublimation pressure
1301 K | 0.00029 ± 5e-05 kPa and 0.00016 ± 9e-05 kPa
1315 K | 0.0004 ± 7e-05 kPa and 0.00024 ± 6e-05 kPa
1325 K | 0.0005 ± 8e-05 kPa and 0.00032 ± 7e-05 kPa
1335 K | 0.00064 ± 9e-05 kPa and 0.0004 ± 8e-05 kPa
1350 K | 0.00088 ± 0.00013 kPa and 0.00089 ± 0.00014 kPa and 0.00057 ± 0.00012 kPa
1364 K | 0.00123 ± 0.00031 kPa and 0.00082 ± 0.00021 kPa
1374 K | 0.00155 ± 0.00038 kPa and 0.00152 ± 0.00038 kPa and 0.00103 ± 0.00027 kPa
1399 K | 0.0026 ± 0.0007 kPa and 0.00175 ± 0.00048 kPa
1421 K | 0.0042 ± 0.0012 kPa and 0.00287 ± 0.0008 kPa
1433 K | 0.0054 ± 0.0016 kPa and 0.0037 ± 0.0011 kPa
1446 K | 0.0071 ± 0.0022 kPa and 0.0048 ± 0.0016 kPa
1470 K | 0.0116 ± 0.0037 kPa and 0.0114 ± 0.0037 kPa and 0.0079 ± 0.0026 kPa
1495 K | 0.0185 ± 0.0063 kPa and 0.0177 ± 0.006 kPa and 0.0127 ± 0.0043 kPa
1519 K | 0.029 ± 0.01 kPa and 0.027 ± 0.009 kPa and 0.0201 ± 0.0066 kPa

From the NIST ThermoML archive (doi:10.1021/je800560b)
